Among the data in the supplement of paper PMC10307832 are relative viability values, retold here.

Test in all cases: relative viability (nuclei count vs DMSO), 5 days (fraction); higher = more cells survive
Compound in experiment [1]: CC1=C(CC(=O)O)c2cc(F)ccc2/C1=C\c1ccc([S+](C)[O-])cc1 [Sulindac] + COc1cc2c(Oc3ccc(NC(=O)C4(C(=O)Nc5ccc(F)cc5)CC4)cc3F)ccnc2cc1OCCCN1CCOCC1 [Foretinib] (partner 0.25 µM)
In outline: (§1)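 Lung cancer cell lines, seeded in 1536-well plates, were treated the following day by pin tool with a single drug or with five library-drug doses (not always all listed) in √10 steps on top of a fixed anchor-drug dose. Cells were fixed and nuclei stained in one step after 5 days, and nuclei were counted. Relative viability is the nuclei count for treated wells divided by that for vehicle wells, reported as medians of duplicate plates.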

Compound in experiment [2]: CC1=C(CC(=O)O)c2cc(F)ccc2/C1=C\c1ccc([S+](C)[O-])cc1 [Sulindac] + CC(=O)Nc1cccc(-n2c(=O)n(C3CC3)c(=O)c3c(Nc4ccc(I)cc4F)n(C)c(=O)c(C)c32)c1 [Trametinib] (partner 0.02 µM)
In outline: as §1

Compound in experiment [3]: CC1=C(CC(=O)O)c2cc(F)ccc2/C1=C\c1ccc([S+](C)[O-])cc1 [Sulindac] + O=C(CCCCCCC(=O)Nc1ccccc1)NO [Vorinostat] (partner 1 µM)
In outline:
as §1

Regarding UMC-11, the relative viability was found to be 1.33 in experiment [1] (first compound 0.08 µM); 1.12 in experiment [1] (first compound 0.253 µM); 0.739 in experiment [1] (first compound 0.8 µM); 0.986 in experiment [1] (first compound 2.53 µM); 1.12 in experiment [1] (first compound 8 µM); 0.733 in experiment [2] (first compound 0.08 µM). Also, the relative viability in experiment [2] (first compound 0.253 µM) was determined as 0.764; in experiment [2] (first compound 0.8 µM), 0.679; in experiment [2] (first compound 2.53 µM), 0.654; in experiment [2] (first compound 8 µM), 0.757; in experiment [3] (first compound 0.08 µM) it was 0.342; in experiment [3] (first compound 0.253 µM) it was 0.411. In addition, the results for the relative viability in experiment [3] (first compound 0.8 µM), in experiment [3] (first compound 2.53 µM) and in experiment [3] (first compound 8 µM) were 0.374, 0.338 and 0.386, respectively.
